Source: patent US20260022340A1, “ATRIOVENTRICULAR NODE-LIKE PACEMAKER CELLS” (UNIVERSITY HEALTH NETWORK, priority 2022, published 2026)

System: human cardiac progenitors
Experiment: Induction of AVN phenotype in hPSC-derived cardiac progenitors, flow cytometry for NKX2-5+TBX3+ myocytes at day 20
Format: cell-based
Experimental: First, hPSCs were incubated in media containing BMP and Rho-associated protein kinase (ROCK) inhibitor on an orbital shaker to generate embryoid bodies (differentiation protocol day: 0). Then, cardiogenic mesoderm was induced using media containing 1-100 ng/mL BMP4, 1-100 ng/ml Activin A, 1-20 ng/mL bFGF, and 1-10 μM CHIR-99021 (differentiation protocol day: 1). […] The cardiogenic mesoderm can be analyzed at day 3/4 of differentiation for the expression of PDGFRa, RALDH2 and CD235a, and should be PDGFRa+RALDH2− and CD235a^low (max 50% positive).
Next, cardiac progenitors were induced using media that contained 0.5-10 μM IWP2 and 1-20 ng/mL VEGF (differentiation protocol day: 3). At this stage, the cardiac progenitors may be a mixed population of early stage (NKX2-5^−) and late stage (NKX2-5^+) cardiac progenitors which may be contractile or not. […] Culture was continued in media that contained 5 ng/mL VEGF until day 12 of the differentiation protocol. The culture was maintained until day 20 of the differentiation protocol before analysis. […] FIGS. 3B, 4B, 5A and 5B present the percentage of NKX2-5^+ TBX3^+ myocytes of total cells present in the culture.
A NKX2-5:GFP+TBX3:tdTomato+ transgenic double reporter hPSC line was cultured using the protocol described in Example 1. AVNLPCs were identified and isolated using Fluorescence-activated cell sorting (FACS), based on their expression of NKX2-5 and TBX3 and the associated expression of the fluorescent reporter (FIG. 2).

Cc1c[nH]c(-c2cnc(NCCNc3ccc(C#N)cn3)nc2-c2ccc(Cl)cc2Cl)n1 [CHIR-99021]
Change in NKX2-5+TBX3+ AVNLPCs of total cell population at day 20 (9 uM CHIR from day 8-11, day 11-15 or day 15-18, n=5 (FIG. 3B)): significant increase
CHIR-99021 concentration at which relatively more NKX2-5+TBX3+ myocytes were induced (3-15 μM used): 12 to 15 µM
CHIR concentration giving highest percentage of NKX2-5+TBX3+ AVNLPCs (treatment day 8-11, day 20 analysis, n=5 (FIG. 4B)): 12 to 15 µM
